Columns and labels:
[1] = system: primary human bladder urothelial cells; assay: BMP pathway activation in cultured urothelial cells, BMP target gene expression by quantitative RT-PCR; assay type: cell-based; conditions: 20 ng/ml FK506, 12 hours
From the text: As Bmp4 and Bmp5 secreted from stromal cells have the potential to act on urothelium, we tested the ability of cultured urothelial cells to respond to BMP pathway activation. For this purpose we selected FK506, an FDA-approved drug recently shown to activate BMP pathway at concentrations below those required for its immunosuppressant effects^27. […] Loss of Shh expression in human invasive carcinomas, as noted previously (FIG. 1A), would be expected to disrupt this signal feedback; this expectation was confirmed by a dramatic reduction of BMP4 and BMP5 expression in human invasive urothelial carcinoma as compared to benign bladder (FIG. 4D).
For BBN-induced bladder carcinogenesis, a 0.1% concentration of BBN was provided to mice ad libitum for 4-6 months. […] Quantitative RT-PCR was used for measurement of RNA levels in samples isolated from the human and mouse bladder samples. […]
(§1) Bladder samples were snap frozen in liquid nitrogen, homogenized with a mortar and pestle, and RNA extracted with the RNeasy Plus Mini kit (Qiagen). For quantitative RT-PCR of mRNA transcripts, first-strand cDNA was made using the SuperScript III First-Strand Synthesis SuperMix (Invitrogen 18080-400). Quantitative RT-PCR was performed using iQ SYBR Green Supermix (Bio-Rad 170-8880) and the Bio-Rad iCycler. […]

[2] = system: BBN-induced bladder cancer; assay: BBN-induced bladder carcinogenesis in mice, progression to invasive carcinoma (histopathology); assay type: in vivo
From the text: To investigate the role of Bmp pathway activity in bladder tumor progression and to test the possibility that Bmp pathway activation might stimulate urothelial differentiation, which in turn might impede tumor progression, we exposed mice to BBN for 4 months, then initiated treatment with FK506 for another month while also continuing exposure to BBN (FIG. 5A). We have previously noted that mice exposed to BBN for 4 months develop pre-malignant lesions indistinguishable from human carcinoma-in-situ but not invasive carcinoma, which requires further BBN exposure^6.
(§2) For BBN-induced bladder carcinogenesis, a 0.1% concentration of BBN was provided to mice ad libitum for 4-6 months. For Smo deletion experiments, a transgene expressing tamoxifen-activated Cre was used to selectively inactivate a conditional allele of Smo. To activate the BMP pathway, Alzet osmotic pumps were implanted subcutaneously to administer FK506 to mice exposed to BBN. Quantitative RT-PCR was used for measurement of RNA levels in samples isolated from the human and mouse bladder samples. […]
A 0.1% concentration of BBN (TCI America) was dissolved in drinking water, and BBN-containing water was provided to mice ad libitum for 4-6 months in a dark bottle. […] Bladders were collected and analyzed after 4 to 6 months of BBN administration. […]

[3] = system: primary human bladder stromal cells; assay: Hh pathway stimulation of primary human bladder stromal cells, gene expression by quantitative RT-PCR; assay type: cell-based; conditions: 24 hours; for Expression of BMP4 increased as compared to the unstimulated control / Expression of BMP5 increased as compared to the unstimulated control / Expression of GLI1 increased as compared to the unstimulated control: serum-starved, SAG 200 nM or Shh conditioned medium (ShhN)
From the text: (§3) To determine whether Hh signaling regulates expression of BMP4 and BMP5 in human bladder, we first examined the expression of Hh pathway components in primary human bladder fibroblasts and epithelial cells. […] To evaluate response to the Hh signal, we treated cultured human bladder stromal and urothelial cells with ShhN protein or with the chemical pathway agonist SAG^24. […] Concomitant with the increase in GLI1 mRNA upon stimulation of the cultured human bladder stromal fibroblasts, we noted an increase in levels of BMP4 and BMP5 transcripts (FIG. 4B).
For BBN-induced bladder carcinogenesis, a 0.1% concentration of BBN was provided to mice ad libitum for 4-6 months. For Smo deletion experiments, a transgene expressing tamoxifen-activated Cre was used to selectively inactivate a conditional allele of Smo. To activate the BMP pathway, Alzet osmotic pumps were implanted subcutaneously to administer FK506 to mice exposed to BBN. Quantitative RT-PCR was used for measurement of RNA levels in samples isolated from the human and mouse bladder samples. For in vitro cultures, primary human bladder urothelial and stromal cells were treated with FK506 for 12 hours, or serum-starved and treated with SAG or Shh conditioned medium with or without cyclopamine for 24 hours prior to gene expression analyses.
Bladder samples were snap frozen in liquid nitrogen, homogenized with a mortar and pestle, and RNA extracted with the RNeasy Plus Mini kit (Qiagen). For quantitative RT-PCR of mRNA transcripts, first-strand cDNA was made using the SuperScript III First-Strand Synthesis SuperMix (Invitrogen 18080-400). Quantitative RT-PCR was performed using iQ SYBR Green Supermix (Bio-Rad 170-8880) and the Bio-Rad iCycler.
Primary human bladder urothelial cells (ScienCell 4320) and bladder stromal fibroblasts (ScienCell 4330) were cultured in Urothelial Cell Medium (ScienCell 4321) and Fibroblast Medium (ScienCell 2301) respectively to sub-confluency. Cells were then starved for 12 hours, followed by addition of Shh conditioned medium in the absence or in the presence of cyclopamine (3 uM, Toronto Research Chemicals), or treated with the Shh pathway agonist SAG (200 nM, Millipore) for 24 hours. In separate experiments, cells were treated with 20 ng/ml FK506 (Cayman Chemical) or DMSO for 12 hours. Following treatment, RNA was extracted using the Trizol reagent.

[4] = system: primary human bladder urothelial cells; assay: Hh pathway stimulation of primary human bladder urothelial cells, gene expression by quantitative RT-PCR; assay type: cell-based; conditions: SAG 200 nM or ShhN, 24 hours
From the text: as §3
as §2, with “To activate the BMP pathway, Alzet osmotic pumps were implanted subcutaneously to administer FK506 to mice exposed to BBN.” left out
as §1

[5] = cyclopamine 3 uM added to Hh pathway stimulation

| Compound | Expression of BMP target gene CDKN1B increased as compared to the DMSO control [1] [fold] | Expression of BMP target gene ID4 increased as compared to the DMSO control [1] [fold] | Progression of bladder cancer in mice ([2]; low-dose FK506, murine BBN model) | Development of invasive carcinoma in treated mice ([2]; mice exposed to BBN 5 months, FK506 0.05 mg/kg/day by subcutaneous osmotic pump during the final month, cohort of 10 mice (control 7 of 9 invasive)) | Expression of BMP4 increased as compared to the unstimulated control [3] [fold] | Expression of BMP5 increased as compared to the unstimulated control [3] [fold] | Expression of GLI1 increased as compared to the unstimulated control [3] [fold] | Response of urothelial cells to Hh pathway stimulation (GLI1 expression) [4] | Effect of added cyclopamine on the stimulated increase of BMP4 and BMP5 expression [3, 5] | Effect of added cyclopamine on the stimulated increase of GLI1 expression [3, 5] |
| --- | --- | --- | --- | --- | --- | --- | --- | --- | --- | --- |
| C=CC[C@@H]1/C=C(\C)C[C@H](C)C[C@H](OC)[C@H]2O[C@@](O)(C(=O)C(=O)N3CCCC[C@H]3C(=O)O[C@H](/C(C)=C/[C@@H]3CC[C@@H](O)[C@H](OC)C3)[C@H](C)[C@@H](O)CC1=O)[C@H](C)C[C@@H]2OC [FK506] | 2.4 | 1.6 | halts progression | no invasive carcinoma was observed |  |  |  |  |  |  |
| CNC1CCC(N(Cc2cccc(-c3ccncc3)c2)C(=O)c2sc3ccccc3c2Cl)CC1 (centres unmarked) [SAG] |  |  |  |  | 5.8 | 2 | 5.4 | did not respond |  |  |
| CC1=C2C[C@H]3[C@@H](CC=C4C[C@@H](O)CC[C@@]43C)[C@@H]2CC[C@]12O[C@@H]1C[C@H](C)CN[C@H]1[C@H]2C [cyclopamine] |  |  |  |  |  |  |  |  | reversed | reversed |
| ShhN: ShhN protein, Hh ligand, applied as Shh conditioned medium |  |  |  |  | 3.9 | 1.6 | 1.6 | did not respond |  |  |

— patent US9814703B2, “Methods for treating cancer by activation of BMP signaling” (The Board of Trustees of the Leland Stanford Junior …, priority 2013, dated 2017)
